Measured values taken from US9487511B2, “Cyclopropanamine compound and use thereof” (Takeda Pharmaceutical Company Limited, priority 2014, dated 2016).
Where a name gives a salt, the structure may show the parent alone. Read-outs that look alike come from different tables or passages of the source.

Experiments:
human LSD1(172-833) = human LSD1(172-833) (Homo sapiens (Human), UniProt O60341); assay: Measurement of LSD1 inhibitory activity (time-resolved fluorescence, biotin-histone H3 mono methylated K4 peptide); format: biochemical; conditions: 60 min preincubation with enzyme at room temperature;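 further: after the compound–enzyme step, substrate reaction 5 min at room temperature in Tris-HCl pH 8.0 with BSA and DTT, halted by 2-PCPA, detected with europium anti-histone H3 antibody plus Streptavidin-XL665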
Method: A test compound dissolved in DMSO was added by to a reaction solution (50 mM Tris-HCl (pH 8.0), 0.1% BSA, 1 mM DTT) containing LSD1 enzyme, and the mixture was reacted at room temperature for 60 min. […] After reaction at room temperature for 5 min, 2-PCPA solution was added to terminate the reaction. A detection solution (800 mM potassium fluoride, 0.1% BSA) containing europium-labeled anti-histone H3 antibody (Wako Pure Chemical Industries, Ltd.) and Streptavidin-XL665 (Cisbio) was further added, and the mixture was left standing for 60 min. […] The LSD1 inhibitory rate (%) of the test compound was calculated by the following formula. inhibitory rate (%)=(1−(test compound count−blank)÷(control−blank))×100
The count of the LSD1 enzyme reaction mixture under compound non-addition conditions is indicated as control, and the count under compound non-addition and LSD1 enzyme non-addition conditions is indicated as blank. A concentration necessary for achieving 50% inhibitory rate was taken as ICH value.

MAO-A enzyme = MAO-A enzyme (Homo sapiens (Human), UniProt P21397); assay: Measurement of MAO-A inhibitory activity (MAO-Glo Assay); format: biochemical
MAO-A enzyme, sequence (P21397 whole entry): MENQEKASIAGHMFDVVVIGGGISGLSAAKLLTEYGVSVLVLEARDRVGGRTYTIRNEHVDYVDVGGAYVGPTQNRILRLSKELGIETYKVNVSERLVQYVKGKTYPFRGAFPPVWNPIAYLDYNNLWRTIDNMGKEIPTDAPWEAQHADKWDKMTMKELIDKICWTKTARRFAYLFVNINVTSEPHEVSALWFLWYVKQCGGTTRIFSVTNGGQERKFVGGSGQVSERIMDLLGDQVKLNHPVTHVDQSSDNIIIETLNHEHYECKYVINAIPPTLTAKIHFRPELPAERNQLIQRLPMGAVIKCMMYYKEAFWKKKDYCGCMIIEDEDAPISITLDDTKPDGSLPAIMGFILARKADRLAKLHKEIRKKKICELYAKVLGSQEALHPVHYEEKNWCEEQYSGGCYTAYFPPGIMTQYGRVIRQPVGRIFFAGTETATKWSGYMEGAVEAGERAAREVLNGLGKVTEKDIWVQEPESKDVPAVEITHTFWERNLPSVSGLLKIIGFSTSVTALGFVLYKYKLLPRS
Method: The MAO-A inhibitory activity evaluation described below followed the protocol of MAO-Glo (registered trademark) Assay of Promega KK.
A test compound dissolved in DMSO was added to a reaction solution (100 mM HEPES (pH 7.5), 5% glycerol) containing MAO-A enzyme (Sigma-Aldrich Co. LLC.), and the mixture was reacted at room temperature for 15 min. MAO substrate (Promega KK) was added to start the reaction. After reaction at room temperature for 60 min, Luciferine detection reagent (Promega KK) was added to terminate the reaction. After reaction at room temperature for 20 min with stirring, the luminescence was measured by Envision (PerkinElmer). The MAO-A inhibitory rate (%) of the test compound was calculated by the following formula. inhibitory rate (%)=(1−(test compound count−blank)÷(control−blank))×100
The count of the MAO-A enzyme reaction mixture under compound non-addition conditions is indicated as control, and the count under compound non-addition and MAO-A enzyme non-addition conditions is indicated as blank.

MAO-B enzyme = MAO-B enzyme (Homo sapiens (Human), UniProt P27338); assay: Measurement of MAO-B inhibitory activity (MAO-Glo Assay); format: biochemical
MAO-B enzyme, sequence (P27338 whole entry): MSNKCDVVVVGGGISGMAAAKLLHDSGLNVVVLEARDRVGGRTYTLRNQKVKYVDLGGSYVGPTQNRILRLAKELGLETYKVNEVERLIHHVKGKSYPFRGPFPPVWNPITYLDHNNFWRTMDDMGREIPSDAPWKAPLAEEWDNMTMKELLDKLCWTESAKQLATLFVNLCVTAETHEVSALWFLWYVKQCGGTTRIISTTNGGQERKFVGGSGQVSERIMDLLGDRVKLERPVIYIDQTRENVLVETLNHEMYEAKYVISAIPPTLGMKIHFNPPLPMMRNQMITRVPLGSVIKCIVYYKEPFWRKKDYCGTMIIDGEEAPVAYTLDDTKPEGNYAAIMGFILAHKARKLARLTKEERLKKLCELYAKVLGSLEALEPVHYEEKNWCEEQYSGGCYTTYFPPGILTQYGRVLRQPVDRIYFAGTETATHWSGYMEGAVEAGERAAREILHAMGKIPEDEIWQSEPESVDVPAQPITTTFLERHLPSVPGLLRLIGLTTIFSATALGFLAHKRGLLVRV
Method: The MAO-B inhibitory activity evaluation described below followed the protocol of MAO-Glo (registered trademark) Assay of Promega KK.
A test compound dissolved in DMSO was added to a reaction solution (100 mM HEPES (pH 7.5), 5% glycerol, 10% DMSO) containing MAO-B enzyme (Sigma-Aldrich Co. LLC.), and the mixture was reacted at room temperature for 15 min. MAO substrate (Promega KK) was added to start the reaction. After reaction at room temperature for 60 min, Luciferine detection reagent (Promega KK) (50 μL) was added to terminate the reaction. After reaction at room temperature for 20 min with stirring, the luminescence was measured by Envision (PerkinElmer). The MAO-B inhibitory rate (%) of the test compound was calculated by the following formula. inhibitory rate (%)=(1−(test compound count−blank)÷(control−blank))×100
The count of the MAO-B enzyme reaction mixture under compound non-addition conditions is indicated as control, and the count under compound non-addition and MAO-B enzyme non-addition conditions is indicated as blank.

[1] = Evaluation of blood cell number in mouse; format: in vivo; conditions: male ICR mice, oral, repeated 7 or 9 days
Method: All compounds were repeatedly administered to the mice at a dose of 1 mg/kg, 10 mg/kg or 100 mg/kg (body weight) for 7 or 9 days. One day after the final administration of the compound, the whole blood was collected.
Using Sysmex XT-1800i (Sysmex Corporation), the white blood cell number, red blood cell number, and platelet number in the collected whole blood per unit volume were measured. The influence of each compound on each blood cell number was determined by calculating the number with the mean of each blood cell number of the mouse without administration of the compound (0 mg/kg group), and the mean of each blood cell number in the whole blood of a mouse with the administration of the compound.

| Structure (SMILES) | IC50 (human LSD1(172-833)) | IC50 (MAO-A enzyme) | IC50 (MAO-B enzyme) | other results |
| --- | --- | --- | --- | --- |
| O=C(NC1CCC(F)(F)CC1)c1cc2c(c([C@@H]3C[C@H]3NCC3CCOCC3)c1)OCC2 (relative stereo) [Example 12, N-(4,4-difluorocyclohexyl)-7-(trans-2-((tetrahydro-2H-pyran-4-ylmethyl)amino)cyclopropyl)-2,3-dihydro-1-benzofuran-5-carboxamide hydrochloride] | < 0.1 µM | > 100 µM | > 100 µM | – |
| Cc1nnc(NC(=O)c2cc([C@@H]3C[C@H]3NCC3CCOCC3)cc3ccccc23)s1 (relative stereo) [Example 16, N-(5-methyl-1,3,4-thiadiazol-2-yl)-3-(trans-2-((tetrahydro-2H-pyran-4-ylmethyl)amino)cyclopropyl)-1-naphthamide dihydrochloride] | < 0.1 µM | > 100 µM | > 100 µM | – |
| Cc1nnc(NC(=O)c2csc([C@@H]3C[C@H]3NCC3CC3)c2)s1 (relative stereo) [Example 23, 5-(trans-2-((cyclopropylmethyl)amino)cyclopropyl)-N-(5-methyl-1,3,4-thiadiazol-2-yl)thiophene-3-carboxamide dihydrochloride] | – | > 100 µM | > 100 µM | – |
| O=C(NC1CCC(F)(F)CC1)c1csc([C@@H]2C[C@H]2NCC2CCOCC2)c1 (relative stereo) [Example 24, N-(4,4-difluorocyclohexyl)-5-(trans-2-((tetrahydro-2H-pyran-4-ylmethyl)amino)cyclopropyl)thiophene-3-carboxamide hydrochloride] | < 0.1 µM | > 100 µM | > 100 µM | – |
| O=C(NC1CCC(F)(F)CC1)c1csc([C@@H]2C[C@H]2NCC2CC2)c1 (relative stereo) [Example 30, 5-(trans-2-((cyclopropylmethyl)amino)cyclopropyl)-N-(4,4-difluorocyclohexyl)thiophene-3-carboxamide hydrochloride] | < 0.1 µM | > 100 µM | > 100 µM | – |
| O=C(NC1CCC(F)(F)CC1)c1csc([C@@H]2C[C@H]2NC2CCOCC2)c1 (relative stereo) [Example 31, N-(4,4-difluorocyclohexyl)-5-(trans-2-(tetrahydro-2H-pyran-4-ylamino)cyclopropyl)thiophene-3-carboxamide hydrochloride] | < 0.1 µM | > 100 µM | > 100 µM | – |
| Cn1cc(NC(=O)c2csc([C@@H]3C[C@H]3NC3CCC3)c2)cn1 (relative stereo) [Example 34, 5-(trans-2-(cyclobutylamino)cyclopropyl)-N-(1-methyl-1H-pyrazol-4-yl)thiophene-3-carboxamide hydrochloride] | < 0.1 µM | > 100 µM | > 100 µM | – |
| Cc1nnc(NC(=O)c2cc([C@@H]3C[C@H]3NCC3CCOCC3)cs2)s1 (relative stereo) [Example 58, N-(5-methyl-1,3,4-thiadiazol-2-yl)-4-(trans-2-((tetrahydro-2H-pyran-4-ylmethyl)amino)cyclopropyl)thiophene-2-carboxamide hydrochloride] | < 0.1 µM | > 100 µM | > 100 µM | – |
| Cc1sc([C@@H]2C[C@H]2NCC2CC2)cc1C(=O)NC1CCC(F)(F)CC1 (relative stereo) [Example 65, 5-(trans-2-((cyclopropylmethyl)amino)cyclopropyl)-N-(4,4-difluorocyclohexyl)-2-methylthiophene-3-carboxamide hydrochloride] | < 0.1 µM | 25 µM | > 100 µM | – |
| Cc1sc([C@@H]2C[C@H]2NCC2CCOCC2)cc1C(=O)NC1CCC(F)(F)CC1 (relative stereo) [Example 66, N-(4,4-difluorocyclohexyl)-2-methyl-5-(trans-2-((tetrahydro-2H-pyran-4-ylmethyl)amino)cyclopropyl)thiophene-3-carboxamide hydrochloride] | < 0.1 µM | 98 µM | > 100 µM | – |
| Cc1nnc(NC(=O)c2cc([C@@H]3C[C@H]3NCC3CC3)sc2C)s1 (relative stereo) [Example 69, 5-(trans-2-((cyclopropylmethyl)amino)cyclopropyl)-2-methyl-N-(5-methyl-1,3,4-thiadiazol-2-yl)thiophene-3-carboxamide dihydrochloride] | < 0.1 µM | 33 µM | > 100 µM | – |
| Cc1nnc(NC(=O)c2cc([C@@H]3C[C@H]3NCC3CCOCC3)sc2C)s1 (relative stereo) [Example 70, 2-methyl-N-(5-methyl-1,3,4-thiadiazol-2-yl)-5-(trans-2-((tetrahydro-2H-pyran-4-ylmethyl)amino)cyclopropyl)thiophene-3-carboxamide dihydrochloride] | < 0.1 µM | 10 µM | 23 µM | – |
| O=C(NC1CCCC1)c1csc(C2CC2NC2CCOCC2)c1 (single isomer, unassigned) [Example 38, hydrochloride] | < 0.1 µM | > 100 µM | > 100 µM | – |
| O=C(NC1CCCC1)c1csc(C2CC2NC2CCOCC2)c1 (single isomer, unassigned) [Example 39] | < 0.1 µM | 23 µM | > 100 µM | – |
| Cc1nnc(NC(=O)c2csc(C3CC3NCC3CCOCC3)c2)s1 (single isomer, unassigned) [Example 40, dihydrochloride] | < 0.1 µM | – | > 100 µM | IC50 (MAO-A enzyme; dihydrochloride): > 100 µM |
| Cc1nnc(NC(=O)c2csc(C3CC3NCC3CCOCC3)c2)s1 (single isomer, unassigned) [Example 41, dihydrochloride] | < 0.1 µM | – | – | IC50 (MAO-A enzyme; dihydrochloride): 67 µM |
| NC1CCC(N[C@@H]2C[C@H]2c2cc(C(=O)NC3CCC(F)(F)CC3)cs2)CC1 (single isomer, unassigned) [Example 45, dihydrochloride] | < 0.1 µM | > 100 µM | > 100 µM | – |
| Cc1nnc(NC(=O)c2cc([C@@H]3C[C@H]3NCC3CCOCC3)cs2)s1 [Example 72, N-(5-methyl-1,3,4-thiadiazol-2-yl)-4-((1S,2R)-2-((tetrahydro-2H-pyran-4-ylmethyl)amino)cyclopropyl)thiophene-2-carboxamide hydrochloride] | < 0.1 µM | – | – | – |
| Cc1nnc(NC(=O)c2cc([C@@H]3C[C@H]3NCC3CC3)c(C)s2)s1 [Example 95, 4-((1S,2R)-2-((cyclopropylmethyl)amino)cyclopropyl)-5-methyl-N-(5-methyl-1,3,4-thiadiazol-2-yl)thiophene-2-carboxamide fumarate] | – | – | – | Platelets, Mean ([1]; 1 mg/kg): 1352 10^3 cells; Red blood cells, Mean ([1]; 1 mg/kg): 888 10^4 cells; White blood cells, Mean ([1]; 1 mg/kg): 422 10 cells; Platelets, Mean ([1]; 10 mg/kg): 1482 10^3 cells; Red blood cells, Mean ([1]; 10 mg/kg): 898 10^4 cells; White blood cells, Mean ([1]; 10 mg/kg): 408 10 cells |
| Cc1sc(C(=O)Nc2cnn(C)c2)cc1[C@@H]1C[C@H]1NC1CCC1 [Example 104, 4-((1S,2R)-2-(cyclobutylamino)cyclopropyl)-5-methyl-N-(1-methyl-1H-pyrazol-4-yl)thiophene-2-carboxamide dihydrochloride] | – | – | – | Platelets, Mean ([1]; 1 mg/kg, dihydrochloride): 1370 10^3 cells; Red blood cells, Mean ([1]; 1 mg/kg, dihydrochloride): 870 10^4 cells; White blood cells, Mean ([1]; 1 mg/kg, dihydrochloride): 373 10 cells; Platelets, Mean ([1]; 10 mg/kg, dihydrochloride): 1404 10^3 cells; Red blood cells, Mean ([1]; 10 mg/kg, dihydrochloride): 872 10^4 cells; White blood cells, Mean ([1]; 10 mg/kg, dihydrochloride): 397 10 cells |
